Where two headings read alike, the source gives them in different places.
Tests used:
[1] = biological target: T1, human DYRK2 (Homo sapiens, UniProt Q92630); experiment: RI-in vitro kinase assay with DYRKtide; format: biochemical; conditions: DYRKtide substrate; Fig. 8b, n=4; read-out: IC50, kinase activity of recombinant DYRK2
T1 construct: His-tagged full-length human DYRK2 recombinant proteins; His; purchased Millipore

[2] = biological target: T2, DYRK1A (Homo sapiens, UniProt Q13627); experiment: SPHINKS assay: TAU (Thr212) phosphorylation by induced DYRK1A in HEK293 cells, western blot; format: cell-based; parameters: expressed in transfected cells; host or cells: Flp-In/T-REx HEK293
Method: TAU was expressed in a fused form with the destabilization domain FKBP12 (DD), which causes degradation of DD fusion proteins in the absence of a small molecule, Shield-1 (ref. [26]).
To distinguish kinase inhibition at the transitional state from that after maturation, we set up two types of time courses. […] Following additional incubation with Shield-1 for 2 h, total cell lysates were harvested, then subjected to western blot.
Cells were then cultured 24 h later in the presence of 1 μg ml^−1 of doxycycline (Nacalai Tesque) for 16 h, then treated with 1 μM of Shield-1 (Clontech, Takara Bio) for 2 h. Small molecules from our chemical library were diluted in 1 ml of DMEM and 1% FBS, then administered into the cells at a final concentration of 10 μM (0.1% DMSO), as illustrated in Fig. 1a. Total cell lysates were prepared with SDS-urea buffer (50 mM Tris-HCl, pH 7.0, 1% SDS, 4 M urea, 10% glycerol, 20 mM dithiothreitol, 0.5 mg ml^−1 BSA), then analysed with SDS–polyacrylamide gel electrophoresis (SDS–PAGE) followed by western blot analysis using antibodies against phospho-TAU (pT212) (1/3,000) and total TAU (1/3,000) proteins (Supplementary Fig. 14).
Category Parameter Description
Assay Type of assay Cell-based
Measurement Detection of TAU phosphorylation mediated by
Key reagents Rabbit polyclonal antibody against phosphorylated
Mouse monoclonal antibody against TAU (TAU-5)
ProteoTuner Shield System (Clontech Laboratories)
pcDNA5/FRT/TO vector and Flp-In/T-REx293 cells
Assay protocol Described in the sections "Methods" and "Results"
Library Library size Approximately 200
Library composition Synthetic chemical compounds, including derivatives
Source Laboratory of Chemical Bioscience, Institute of
Biomaterials and Bioengineering, Tokyo Medical and
Screen Format 6-well plates (FALCON) coated with polyethylenimine
Screen Concentration(s) tested 10 µM (0.1% DMSO) in DMEM with 1%FBS
Reagent/ compound dispensing system Manual
Detection instrument and software Western blot using primary anti-phospho- TAU and […]
Chemiluminescence of HRP was detected by the […]

[3] = biological target: T3, 3xFLAG-DYRK1A / CDC37-nanoKAZ (Homo sapiens, UniProt Q13627); parameters: expressed in transfected cells; host or cells: 293T cells stably expressing CDC37-nanoKAZ; method as in PMID 26234946; conditions: cited from earlier work
[4] = test system: transitional intermediate of Drosophila DYRK2; parameters: method as in PMID 17188038; conditions: cited from earlier work
[5] = test system: mature Drosophila DYRK2; parameters: method as in PMID 17188038; conditions: cited from earlier work
[6] = biological target: T4, human DYRK1A kinase domain (Homo sapiens, UniProt Q13627); experiment: RI-in vitro kinase assay with DYRKtide; format: biochemical; conditions: for IC50: DYRKtide substrate
T4 construct: His-tagged human DYRK1A kinase domain (residues 127–485) was produced in E. coli; His; made in house; host or cells: E. coli
Method: (§1) The RI-in vitro kinase assay was performed as described previously, with some modifications. […] GST-tagged full-length human DYRK1B recombinant proteins and His-tagged full-length human DYRK2 recombinant proteins were obtained from Life Technologies and Millipore, respectively. The kinase reaction was performed in a reaction mixture containing serially diluted inhibitors, 10 mM MOPS-KOH (pH 7.0), 10 mM magnesium acetate, 200 μM EDTA, 1 μM ATP, 0.1–0.4 μCi [γ-^32P]ATP, 5 μM DYRKtide and 0.1–1 μg recombinant kinase, for a final volume of 25 μl. The final concentration of DMSO was adjusted to 1%, regardless of the inhibitor concentration. The reaction mixture was incubated at 30 °C for 10 min and phosphoric acid (final 5%) was then added to stop the reaction. We then dispensed 25 μl of the reaction mixture onto P81, a phosphocellulose membrane (Whatman, GE Healthcare), and washed four times in 5% phosphoric acid. Cherenkov light from the incorporated ^32P was measured using a liquid scintillation counter. The kinase assay conditions, including the incubation period and the concentration of the kinases and substrates, were optimized to maintain linearity during the incubation. The net radioactivity was determined by subtracting the background count from the reaction mixture without kinase, and the data were expressed as a percentage of the control sample containing the solvent.
The amount of incorporated ^32P was calculated from the standard line. The Km, Ki and Vmax values were calculated with Prism5 software (GraphPad Software) using the competitive inhibition model.

[7] = biological target: T2, DYRK1A; conditions: PURExpress
Method: The PURExpress kit (New England Biolabs) was employed. DYRK1A was expressed at 37 °C for 40 min in a 12.5-μl reaction mixture containing 30 ng of pET28a(+)-FLAG-DYRK1A. […] For immunoprecipitation, 100 μl of PBS containing 0.5% Empigen BB, 0.5 mg ml^−1 BSA and 5 mM EDTA was added into the reaction mixture, then incubated with anti-FLAG (M2) beads at 4 °C for 6 h. The samples were prepared with an SDS-urea buffer, then analysed with SDS–PAGE followed by western blot (Supplementary Fig. 14). The band intensities were measured using the LAS-3000 (Fujifilm) and Multi Gauge software (Fujifilm).

[8] = biological target: T2, DYRK1A; conditions: DYRKtide, 100 μM ATP; up to 32 μM compound
Method: For the in vitro kinase assay, 0.5 μl of the reaction mixture was incubated in a total volume of 25 μl of AR buffer containing 0.1 mg ml^−1 of BSA, 100 μM of ATP, 50 μM of DYRKtide peptide (Anaspec) and the indicated concentrations of the small molecules for 2 h at 37 °C. The consumption of ATP was measured with ADP-Glo Kinase Assay kit (Promega Corporation).

[9] = biological target: GST-DYRK1A-TS Y319E (Homo sapiens, UniProt Q13627, Y319E); experiment: biochemical
Method: (§4) For the in vitro kinase assay, 2 μl (bed vol.) of the resin was incubated in a total volume of 25 μl of AR buffer containing 0.1 mg ml^−1 of BSA, 100 μM of ATP, 50 μM of DYRKtide peptide and the indicated concentrations of the small molecules, for 2 h at 37 °C. The consumption of ATP was measured with ADP-Glo Kinase Assay kit.

[10] = biological target: GST-DYRK1A-TS Y319E mutant (Homo sapiens, UniProt Q13627, Y319E); experiment: biochemical; conditions: ATP 100 μM
Method: The cells were cultured with IPTG (final 1 mM) for 24 h at 6 °C, then lysed with GET buffer (20 mM HEPES-KOH, pH 8.0, 150 mM NaCl, 1 mM EDTA, 2 mM dithiothreitol, 10% glycerol, 0.5% Empigen BB, 0.5% Triton X-100). Clarified cell lysates were loaded onto a Strep-Tactin Sepharose column (IBA) and the bound proteins were then eluted with GET buffer containing 2.5 mM desthiobiotin (IBA) and 1 mg ml^−1 BSA. The eluates were subsequently applied to GST-Accept resin (Nacalai Tesque). The resin was washed extensively, first with GET buffer, then with AR buffer (5 mM MOPS, pH7.2, 2.5 mM β-glycerol-phosphate, 5 mM MgCl2, 1 mM EGTA, 0.4 mM EDTA, 2 mM tris(2-carboxyethyl)phosphine). […] We then added 5 μl of 2 mg ml^−1 BSA to the suspension (final concentration of 0.1 mg ml^−1), followed by incubation at 37 °C for 30 min. […] The bound proteins were eluted with SDS-urea buffer, then analysed with SDS–PAGE followed by western blot (Supplementary Fig. 14).
The band intensities were measured using the ChemiDoc MP Imaging System (Bio-Rad). In Fig. 6d,e, the relative activity of the phosphorylation was calculated from the ATP-dependent increase in the intensity of the p-Ser97 and p-Tyr signals by subtracting the band intensity in the absence of ATP from that in the presence of ATP.

[11] = biological target: T5, human DYRK1B (Homo sapiens, UniProt Q9Y463); experiment: RI-in vitro kinase assay with DYRKtide; format: biochemical
T5 construct: GST-tagged full-length human DYRK1B recombinant proteins; GST; purchased Life Technologies
T5 sequence (Q9Y463 whole entry): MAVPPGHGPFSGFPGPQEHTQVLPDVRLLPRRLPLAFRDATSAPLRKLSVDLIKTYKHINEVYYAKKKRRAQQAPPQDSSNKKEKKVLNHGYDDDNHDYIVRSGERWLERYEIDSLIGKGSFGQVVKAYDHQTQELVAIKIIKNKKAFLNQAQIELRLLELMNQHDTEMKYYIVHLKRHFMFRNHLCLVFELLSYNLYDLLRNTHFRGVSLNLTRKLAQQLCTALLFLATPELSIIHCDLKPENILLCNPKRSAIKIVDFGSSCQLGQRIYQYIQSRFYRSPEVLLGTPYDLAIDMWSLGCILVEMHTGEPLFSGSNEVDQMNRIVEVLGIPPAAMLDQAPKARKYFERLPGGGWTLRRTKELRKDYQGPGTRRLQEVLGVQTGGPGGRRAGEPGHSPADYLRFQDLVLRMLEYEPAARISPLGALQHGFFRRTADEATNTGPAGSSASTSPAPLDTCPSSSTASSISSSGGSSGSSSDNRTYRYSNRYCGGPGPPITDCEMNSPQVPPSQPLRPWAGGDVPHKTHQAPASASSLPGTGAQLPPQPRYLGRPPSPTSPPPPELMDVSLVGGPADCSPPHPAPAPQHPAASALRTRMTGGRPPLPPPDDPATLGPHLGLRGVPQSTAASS
Method: as §1

[12] = biological target: GST-DYRK1A-TS WT (Homo sapiens, UniProt Q13627); experiment: biochemical
Method: as §4

[13] = biological target: T3, 3xFLAG-DYRK1A / CDC37-nanoKAZ; conditions: 24 h treatment; dose-dependent; 293T
Method: The wells were wash three times with ice-cold HENG buffer and then a luminescence assay was performed. […] The luminescence intensity was recorded at 0.1 s intervals for 10 s or 10 min. […] The relative amount of protein bound on the well was estimated from the absorbance.

[14] = biological target: T6, FLAG-DYRK1A (Homo sapiens, UniProt Q13627); experiment: 2A peptide bicistronic FLAG-DYRK1A/HA-EGFP expression in HEK293 cells, western blot; format: cell-based
T6 construct: F2A peptide (remnant left on the upstream protein after ribosome skipping) (C); expressed in transfected cells; host or cells: HEK293 (Flp-In/T-REx), vector stably integrated
Method: After incubation for 5 h, total cell lysates were subjected to SDS–PAGE followed by western blot analysis using the corresponding antibodies against FLAG, HA and GAPDH. Representative data from the pentaplicate experiments are shown. […] Representative data from the triplicate experiments are shown. […] Total cell lysates were subjected to SDS–PAGE followed by western blot analysis. Representative data from the triplicate experiments are shown.

[15] = test system: p-Ser97 of FLAG-DYRK1A; experiment: p-Ser97 signal of FLAG-DYRK1A in HEK293 cells treated with phosphatase inhibitors; format: cell-based; conditions: HEK293, with doxycycline 8 h
Source text: blotanalysisusing antibodies against p- Ser97 and FLAG. If Ser97 autophosphorylation were mediated by an intermolecular mechanism, then Ser97 of the kinase- dead K188R mutant would be phosphorylated when expressed in the presence of DD-FLAG-DYRK1A. However, in spite of the excess amount of DD- FLAG-DYRK1A, the phosphorylation of Ser97 in the kinase- dead mutant didnot increase compared toresults obtainedin the absence of DD- FLAG-DYRK1A.
Representative data from the triplicate experiments is shown.
(b) HEK293 cells harbouring the empty vector or the expression vector of DD -FLAG-DYRK1A with the bicistronic expression cassette of the kinase- dead FLAG- DYRK1A (K188R) and EGFP were incubated with Shield- 1 at the indicated concentrations for 16 h. After accumulation of DD- FLAG-DYRK1A, FLAG- DYRK1A (K188R) was expressed for 16 h in the presence of Shield- 1 and doxycycline. The kinase- dead FLAG- DYRK1A (K188R) didnot increase in the presence of DD- FLAG-DYRK1A, supporting the conclusion in (a).Representative data from the triplicate experiments is shown.
(c) p- Ser97 is susceptible to dephosphorylation in HEK293 cells. The HEK293 cells were treated with the indicated concentration of calyculin A, okadaic acid, and cantharidic acid in the presence of doxycycline for 8 h. The total cell lysates were subjected to immunoprecipitation using antibody against FLAG- tag. The immuno- precipitated FLAG- DYRK1A was detected using antibodies against p- Ser97 and FLAG- tag. […]
with cantharidic acid increased the p- Ser97 signal. In contrast, the treatment with calyculin A […]
which may indicate that calyculin A and okadaic acid inhibited dephosphorylation of other sites […]
phosphatases inhibited by these compounds have not been completely identified. Phosphatase(s) inhibited by cantharidic acid may play a role in dephosphorylation of p -Ser97 in the cells. […]
antibody- conjugated beads. […] Each protein was detected with the corresponding antibodies against p- Ser97 or FLAG. […]
(e) The band intensities in ( d) were quantified. […]

[16] = test system: DYRK1A; experiment: Rescue of Xenopus laevis embryos injected with DYRK1A mRNA; format: in vivo; conditions: 2.5 μM
Source text: (§2) Uninjected embryos were used as controls. Development of the embryos was allowed to proceed to stage 40 in the dark. Representative images are shown. […] The results are the means±s.e.m. of triplicate experiments (n=55). (c) RT–PCR analysis of the neural marker genes in the head regions of the embryos at stage 25. Each of the marker genes indicates a specific region: NCAM for the pan-neural region, Brain Factor-1 (BF-1) for the forebrain, Pax-6 and Rx-1 for the eye, Otx-2 for the fore-midbrain, Engrailed-2 (En-2) for the mid-hindbrain and Krox-20 for the hindbrain. Ornithine decarboxylase (ODC) is an internal control.
(§3) DYRK1A and DYRK1B mRNA, which were synthesized from linearized vectors with the mMessage mMachine Kit (Life Technologies), were injected into two dorsal blastomeres at the eight-cell-stage for RT–PCR analysis and observation of the embryo phenotypes. […] The head regions of the injected embryos were dissected at the neural stage (stage 25) and the total RNA was isolated using TRIzol (Life Technologies). cDNA synthesis was carried out using Moloney murine leukaemia virus reverse transcriptase (Life Technologies). The sequences of the primer pairs were as follows[51][52]: NCAM, 5′-[…]-3′ and 5′-[…]-3′; Brain factor 1 (BF-1), 5′-[…]-3′ and 5′-[…]-3′; Pax-6, 5′-[…]-3′ and 5′-[…]-3′; Rx1, 5′-[…]-3′ and 5′-[…]-3′; Otx-2, 5′-[…]-3′ and 5′-[…]-3′; En-2, 5′-[…]-3′ and 5′-[…]-3′′; Krox-20, 5′-[…]-3′ and 5′-[…]-3′; ornithine decarboxylase (ODC), 5′-[…]-3′ and 5′-[…]-3′. No randomization was used, and no blinding was done.

[17] = test system: DYRK1B; experiment: Rescue of Xenopus laevis embryos injected with DYRK1B mRNA; format: in vivo; conditions: 2.5 μM
Source text: as §2, §3

T1 sequence (Q92630 whole entry): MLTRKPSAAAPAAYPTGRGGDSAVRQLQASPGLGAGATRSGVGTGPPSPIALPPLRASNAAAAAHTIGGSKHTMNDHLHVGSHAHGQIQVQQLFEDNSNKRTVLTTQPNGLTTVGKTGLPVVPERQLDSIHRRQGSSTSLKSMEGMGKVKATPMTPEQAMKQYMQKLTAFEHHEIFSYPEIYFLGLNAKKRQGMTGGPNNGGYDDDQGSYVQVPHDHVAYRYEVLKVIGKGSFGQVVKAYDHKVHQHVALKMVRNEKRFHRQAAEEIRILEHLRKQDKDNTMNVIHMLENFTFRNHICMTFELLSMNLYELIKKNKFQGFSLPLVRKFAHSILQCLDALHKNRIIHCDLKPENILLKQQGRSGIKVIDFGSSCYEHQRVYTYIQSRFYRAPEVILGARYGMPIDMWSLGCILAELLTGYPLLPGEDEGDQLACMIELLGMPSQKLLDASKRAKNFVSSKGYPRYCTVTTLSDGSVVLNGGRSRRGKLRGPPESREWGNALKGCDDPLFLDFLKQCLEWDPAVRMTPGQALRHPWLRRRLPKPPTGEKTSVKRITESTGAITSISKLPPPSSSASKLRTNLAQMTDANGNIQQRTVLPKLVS

SMILES: CCN1/C(=C/C(C)=O)Sc2ccc(O)cc21 [INDY]
- IC50 [1]: 27.7 nM
- TAU phosphorylation in Tc 2 ([2]; 10 μM, compound added after accumulation of mature DYRK1A, HEK293): suppressed
- TAU phosphorylation in Tc 1 ([2]; 10 μM, compound added before doxycycline induction, HEK293): suppressed
- interaction between DYRK1A and CDC37-nanoKAZ [3]: weakened

SMILES: CC(C)[C@H](CO)Nc1nc(Nc2cccc(Cl)c2)c2ncn(C(C)C)c2n1 [Purvalanol A]
- inhibition of the transitional intermediate of Drosophila DYRK2 [4]: inhibited
- inhibition of the mature kinase (Drosophila DYRK2) [5]: inhibited by both

SMILES: CCOc1cc(/C=C2\SC(=S)NC2=O)ccc1O [RD0392]
- Ki [6]: 132 nM
- IC50 ([6]; IC50, in vitro kinase activity of recombinant DYRK1A, Fig. 1f, n=4): 60.2 nM
- IC50 ([6]; IC50, kinase activity of recombinant DYRK1A, Supplementary Fig. 13d, n=3): 25.6 nM
- signal from phosphorylated tyrosine in in vitro translation [7]: no significant effects
- Ser97 autophosphorylation in in vitro translation ([7]; compound added prior to transcription): suppressed
- IC50 [1]: 45.6 nM
- TAU phosphorylation in HEK293 cells ([2]; Supplementary Fig. 2b): suppresses
- substrate phosphorylation by DYRK1A produced in PURExpress [8]: inhibited
- IC50 [9]: 813 nM
- IC50 ([10]; IC50, Ser97 autophosphorylation): 205 nM
- IC50 ([10]; IC50, tyrosine phosphorylation): 514 nM
- IC50 [11]: 53.3 nM
- IC50 [12]: 325 nM
- interaction between DYRK1A and CDC37-nanoKAZ [13]: weakened
- amount of FLAG-DYRK1A (destabilization) [14]: did not decrease

SMILES: Brc1c(Br)c(Br)c2[nH]nnc2c1Br [TBB, 4,5,6,7-tetrabromo-1H-benzotriazole]
- inhibition of the mature kinase (Drosophila DYRK2) [5]: inhibited by both

SMILES: COC[C@@H]([C@H](O)[C@H](O)C(=O)NCC[C@H](C)c1nc(/C=C/C[C@@H]2O[C@]3(C[C@@H](O)[C@@H]2C)O[C@H]([C@H](C[C@H](O)[C@H](C)[C@H](O)[C@H](C)/C=C(C)/C(C)=C/C=C/C(C)=C\C#N)OC)[C@H](OP(=O)(O)O)C3(C)C)co1)N(C)C [calyculin A]
- p-Ser97 signal in FLAG-DYRK1A [15]: did not increase

SMILES: CC1(C(=O)O)C2CCC(O2)C1(C)C(=O)O (stereo not shown) [cantharidic acid]
- p-Ser97 signal in FLAG-DYRK1A [15]: increased

SMILES: C=C1[C@@H](O)[C@@H]2O[C@]3(CC[C@H](/C=C/[C@@H](C)[C@@H]4CC(C)=C[C@@]5(O[C@H](C[C@@](C)(O)C(=O)O)CC[C@H]5O)O4)O3)CC[C@H]2O[C@@H]1[C@@H](O)C[C@H](C)[C@H]1O[C@@]2(CCCCO2)CC[C@H]1C [okadaic acid]
- p-Ser97 signal in FLAG-DYRK1A [15]: did not increase

SMILES: CCN1/C(=C/C(C)=O)Sc2ccc(OC(C)=O)cc21 [proINDY]
- rescue of embryos injected with DYRK1A mRNA (small eyes) ([16]; Fig. 9b): almost completely rescued
- expression of neural marker genes in DYRK1A-overexpressing embryos ([16]; RT-PCR, stage 25 head regions): increased
- developmental malformation induced by DYRK1A ([16]; stage 40 tadpoles): repressed
- tadpoles developed normally when injected with DYRK1B mRNA ([17]; Fig. 9b): 89.1%
- expression of neural marker genes in DYRK1B-overexpressing embryos ([17]; RT-PCR, stage 25 head regions): increased
- developmental malformation induced by DYRK1B ([17]; stage 40 tadpoles): repressed

From paper PMC4844702, “Selective inhibition of the kinase DYRK1A by targeting its folding process” (Nature Communications, 2016)
